# Data published in article PMC5343027, “Crystal Structure of the Chloroplastic Oxoene Reductase ceQORH from Arabidopsis thaliana” (Frontiers in Plant Science, 2017).
# Columns and labels:
# [1] = target: T1, ceQORH (chloroplast envelope quinone oxidoreductase homolog) (Arabidopsis thaliana, UniProt Q9SV68); experiment: X-ray crystal structures, […] Å (binary) and […] Å (ternary with NADP+); type: binding
# T1 sequence (Q9SV68 1-329): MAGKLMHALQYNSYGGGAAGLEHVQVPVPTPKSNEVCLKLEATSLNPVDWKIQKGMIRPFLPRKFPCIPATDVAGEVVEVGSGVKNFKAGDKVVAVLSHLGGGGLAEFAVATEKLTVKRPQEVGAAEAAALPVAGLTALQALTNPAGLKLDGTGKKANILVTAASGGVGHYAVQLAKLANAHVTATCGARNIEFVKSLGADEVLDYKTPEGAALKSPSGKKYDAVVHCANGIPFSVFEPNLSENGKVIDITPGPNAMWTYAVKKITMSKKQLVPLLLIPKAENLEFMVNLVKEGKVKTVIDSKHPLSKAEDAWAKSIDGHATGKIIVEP
# [2] = target: T1, ceQORH (chloroplast envelope quinone oxidoreductase homolog); experiment: X-ray crystal structure, […] Å, ternary complex with 13-KOTE; type: binding
# [3] = target: T1, ceQORH (chloroplast envelope quinone oxidoreductase homolog); experiment: enzyme inhibition kinetics ([…] nm) after […] s preincubation, […] trans-1, […] diphenyl-2-propenone; low-quality crystal structure with NADPH not used; type: biochemical
compound,measurement,setting,value
"CC/C=C\CC(=O)/C=C/C=C/CCCCCCCC(=O)O [13-KOTE, 13-oxo-9(Z), 11(E), 15(Z)-octadecatrienoic acid]","X-ray crystal structures, 2.78 Å (binary) and 2.81 Å (ternary with NADP+)",[1],"apo-ceQORH (5A3V), ceQORH-13-KOTE (5A3J), and ceQORH-NADP^+-13-KOTE (5A4D)"
NC(=O)c1ccc[n+]([C@@H]2O[C@H](COP(=O)(O)OP(=O)(O)OC[C@H]3O[C@@H](n4cnc5c(N)ncnc54)[C@H](OP(=O)(O)O)[C@@H]3O)[C@@H](O)[C@H]2O)c1 [NADP^+],"X-ray crystal structure, 2.81 Å, ternary complex with 13-KOTE",[2],NADP^+ is bound at the interface of the two domains and the nicotinamide ring is in the vicinity of the catalytic site
"CCCCCC(=O)/C=C/C=C\CCCCCCCC(=O)O [13-KODE, 13-oxo-9(Z),11(E)-octadecadienoic acid]",IC50,[3],36 µM
